These results are taken from patent publication US11814327B2, “Fertilizers containing animal nutrient core packet” (Pursell Agri-Tech, LLC, priority 2010, dated 2023).

The experiment relates to spinach variety (Bloomsdale Long-Standing). As to the kind of experiment: Zinc uptake in spinach plants from application of fertilizer containing animal nutrient core packet (8-kg pot test). The settings on record: Soil applied Zn nutrient core product. It counts as in vivo. The protocol: In this example tests were performed to quantify the incorporation of zinc in a common spinach variety (Bloomsdale Long-Standing) employing compositions of the present invention. The tests quantified the increase in leaf zinc content due to application of compositions of the present invention containing zinc. The impact of the present compositions on spinach biomass increase was not the primary objective. In addition to applications of the present compositions to soil, for comparative purposes, foliar application of zinc solutions were applied to spinach leaves. Direct foliar applications provide an indication of potentially maximum amounts of zinc uptake into the leaves. 1. Soil • 8 kg Greenville loam (fine, kaolinitic, thermic Rhodie Kandiudults), pH=6.2, organic matter=1.4%, CEC=5.2 cmol kg^−1. The soil has been depleted of nutrients by previous cropping of tomatoes and cabbage. 2. Experimental Units • The spinach was grown in 8-kg pots. Each pot was transplanted with two spinach seedlings on Mar. 5, 2010 3. Blanket Fertilizer Rates—Basal • All fertilizer materials were laboratory grade reagents to avoid contamination and antagonistic interaction with Zn, Fe and/or I. • Nitrogen: 250 mg N kg^−1 or 2 g N por^−1. […] Crop Data Analysis • The fresh and dried weight of spinach leaves was determined and analyzed for N, P, K, Zn, Fe and I. [table]

As for `O=C([O-])CN(CCN(CC(=O)[O-])CC(=O)[O-])CC(=O)[O-].[Na+].[Na+].[Zn+2]` [Zinc EDTA], the “effectiveness as Zn source in the nutrient core in increasing Zn tissue content in spinach” value is listed as “more effective than ZnSO4”.
